Measured values from EP0897920A1, “NOVEL HETEROCYCLIC COMPOUNDS HAVING PLATELET AGGREGATION INHIBITORY EFFECTS” (MEIJI SEIKA KABUSHIKI KAISHA, priority 1996, dated 1997).
Where a name gives a salt, the structure may show the parent alone. Read-outs that look alike come from different tables or passages of the source.

Legend:
human TXA2 synthetase = molecular target: T1, human TXA2 synthetase (Homo sapiens, UniProt P24557); assay: Inhibitory activity against thromboxane A2 (TXA2) synthetase; format: biochemical
T1 construct: purchased BIOMOL
T1 sequence (P24557 1-533): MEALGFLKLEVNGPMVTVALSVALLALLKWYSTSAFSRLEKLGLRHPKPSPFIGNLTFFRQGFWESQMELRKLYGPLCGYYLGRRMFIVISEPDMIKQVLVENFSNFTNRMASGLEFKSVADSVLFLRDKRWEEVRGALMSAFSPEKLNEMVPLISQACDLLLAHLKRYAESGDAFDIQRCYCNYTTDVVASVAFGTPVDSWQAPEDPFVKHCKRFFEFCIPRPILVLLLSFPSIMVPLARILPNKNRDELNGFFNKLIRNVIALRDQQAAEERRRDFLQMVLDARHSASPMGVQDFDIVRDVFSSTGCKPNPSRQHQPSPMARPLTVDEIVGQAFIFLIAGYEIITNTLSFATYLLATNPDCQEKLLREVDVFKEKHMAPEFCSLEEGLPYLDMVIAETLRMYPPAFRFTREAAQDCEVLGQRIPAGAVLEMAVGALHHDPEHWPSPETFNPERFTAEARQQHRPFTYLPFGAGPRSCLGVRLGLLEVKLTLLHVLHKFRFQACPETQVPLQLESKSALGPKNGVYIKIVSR
Experimental: The inhibitory activity of the compound of the present invention against TXA2 synthetase was assayed according to a method established by Ri et al. (Nihon Yakuri Gakkaishi, 106, 31 (1995)). A specimen solution (10 µl) was added to 100 µl of a 50 mM Tris-HCl buffer (containing 0.1 M NaCl, pH 7.5, 25°C) containing 10 µg of human TXA2 synthetase (BIOMOL), and incubation was then carried out at 25°C for 3 min. Next, 2 µl of 50 µg/ml PGH2 solution (Cayman Chemical) was added thereto to initiate an enzyme reaction, followed by the reaction at 25°C for 3 min. An aqueous ferrous chloride solution (25 mM, 10 µl) was added thereto to terminate the reaction. The reaction system was allowed to stand at room temperature for 15 min and then centrifuged under conditions of 4°C, 3000 x g, and 10 min. The supernatant was obtained as a sample for quantitative determination of TXB2. The amount of TXB2 was determined by means of Thromboxane B2 Enzyme Immunoassay Kit (Cayman Chemical). After a color reaction, the absorbance was measured at 415 nm with a microplate reader (MTP-32, manufactured by Corona Electric Co., Ltd.). The inhibition against TXA2 synthetase activity was calculated by the following equation, and 50% inhibition concentration was determined by regression straight line. Inhibition (%) = (1 - B/A) x 100 [formula] wherein • A represents the amount of TXB2 produced without the test compound; and • B represents the amount of TXB2 produced with the test compound.

[1] = system: human PRP (platelet rich plasma); assay: Inhibitory activity against platelet aggregation (ADP-induced, human PRP); format: cell-based; settings: aggregation inducer ADP 5 µM, preincubated 2 min
Experimental: The inhibitory activity of the compound according to the present invention against platelet aggregation was examined with human PRP (platelet rich plasma).
Nine volumes of a blood sample was taken out of the vein of a normal human being with a syringe in which one volume of a 3.8% sodium citrate solution was charged. The blood sample was centrifuged at 170 x g at room temperature for 10 min. The supernatant thus obtained was isolated as PRP. The residual blood sample that PRP had been taken out was centrifuged at 2,700 x g for 15 min. The supernatant was then taken as platelet poor plasma (PPP).
A platelet aggregation test was carried out with an aggligometer (PAM-8C, manufactured by MEBANICKS Co. Ltd.). Compounds under test were dissolved in physiological saline, 0.1 N hydrochloric acid-physiological saline, or 1 N aqueous sodium hydroxide solution-physiological saline. The compound under test and PRP were preincubated for 2 min. An aggregation inducer ADP (CHRONO-PAR REAGENTS 384 ADP, CHRONO-LOG Corp.) was used after dilution with physiological saline to a final concentration of 5 µM.
The anti-platelet aggregation activity was determined as an inhibition rate to platelet aggregation effect of ADP in the absence of a compound under tent as follows. Anti-platelet aggregation activity (%) = [1 - (aggregation rate by ADP in the presence of test compound/aggregation rate by ADP in the absence of test compound)] x 100 [formula]

[2] = molecular target: T2, human platelet GPIIb/IIIa (Homo sapiens, UniProt P05106+P08514); assay: Inhibitory activity against binding between platelet GPIIb/IIIa and fibrinogen (solid phase receptor binding)
T2 construct: the adsorbed GPIIb/IIIa was eluted with buffer A containing 2 mM GRGDSPK peptide; from tissue
T2 sequence (P08514 32-887 limits assumed): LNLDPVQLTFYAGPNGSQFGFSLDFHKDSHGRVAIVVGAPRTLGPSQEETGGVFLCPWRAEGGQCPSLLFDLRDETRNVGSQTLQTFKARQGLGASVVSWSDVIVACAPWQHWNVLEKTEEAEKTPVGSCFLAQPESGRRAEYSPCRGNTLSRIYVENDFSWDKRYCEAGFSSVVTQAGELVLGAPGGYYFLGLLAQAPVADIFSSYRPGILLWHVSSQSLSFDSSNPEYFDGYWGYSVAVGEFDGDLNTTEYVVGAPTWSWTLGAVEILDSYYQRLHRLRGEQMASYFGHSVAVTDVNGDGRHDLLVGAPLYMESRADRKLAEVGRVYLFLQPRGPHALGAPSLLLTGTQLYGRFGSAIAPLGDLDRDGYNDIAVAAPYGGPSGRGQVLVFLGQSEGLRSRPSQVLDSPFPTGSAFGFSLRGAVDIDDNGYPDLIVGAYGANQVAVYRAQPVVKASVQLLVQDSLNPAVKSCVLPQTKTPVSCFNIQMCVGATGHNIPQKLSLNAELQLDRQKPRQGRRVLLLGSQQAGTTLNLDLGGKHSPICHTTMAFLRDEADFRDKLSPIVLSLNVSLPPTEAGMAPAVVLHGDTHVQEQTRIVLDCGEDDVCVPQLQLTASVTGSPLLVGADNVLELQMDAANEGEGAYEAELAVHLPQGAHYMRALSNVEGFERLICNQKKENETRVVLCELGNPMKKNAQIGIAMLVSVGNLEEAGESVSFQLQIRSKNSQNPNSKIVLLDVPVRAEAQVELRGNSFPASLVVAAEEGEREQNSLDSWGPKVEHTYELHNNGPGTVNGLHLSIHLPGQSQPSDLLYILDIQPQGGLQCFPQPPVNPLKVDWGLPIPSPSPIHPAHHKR
T2 sequence (P08514 891-1039 partner limits assumed): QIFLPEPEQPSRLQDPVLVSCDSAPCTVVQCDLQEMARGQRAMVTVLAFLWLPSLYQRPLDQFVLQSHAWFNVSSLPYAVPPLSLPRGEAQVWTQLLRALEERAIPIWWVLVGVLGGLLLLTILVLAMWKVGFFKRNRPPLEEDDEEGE
T2 sequence (P05106 27-788): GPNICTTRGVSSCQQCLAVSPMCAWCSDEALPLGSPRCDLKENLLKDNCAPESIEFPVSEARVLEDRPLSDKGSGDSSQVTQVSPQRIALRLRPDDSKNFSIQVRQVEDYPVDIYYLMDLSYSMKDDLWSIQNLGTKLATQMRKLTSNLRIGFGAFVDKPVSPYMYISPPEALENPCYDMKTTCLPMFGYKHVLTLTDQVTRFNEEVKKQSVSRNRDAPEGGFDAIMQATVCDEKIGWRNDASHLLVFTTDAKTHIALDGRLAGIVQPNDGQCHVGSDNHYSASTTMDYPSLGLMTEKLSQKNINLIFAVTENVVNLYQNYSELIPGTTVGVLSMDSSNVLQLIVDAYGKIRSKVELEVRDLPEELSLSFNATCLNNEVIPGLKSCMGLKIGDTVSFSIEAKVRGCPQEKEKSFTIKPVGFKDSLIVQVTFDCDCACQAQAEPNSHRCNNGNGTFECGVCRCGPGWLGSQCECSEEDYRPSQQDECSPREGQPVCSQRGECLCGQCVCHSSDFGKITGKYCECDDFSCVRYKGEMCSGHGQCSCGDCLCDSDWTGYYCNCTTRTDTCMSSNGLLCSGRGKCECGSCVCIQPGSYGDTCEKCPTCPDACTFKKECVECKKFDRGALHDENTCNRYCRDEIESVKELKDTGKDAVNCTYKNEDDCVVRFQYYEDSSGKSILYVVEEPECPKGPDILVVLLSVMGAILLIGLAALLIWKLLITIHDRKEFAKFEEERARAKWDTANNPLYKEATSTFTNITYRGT
Description: The inhibitory activity of the compounds of the present invention against binding between platelet GPIIb/IIIa and fibrinogen was examined by means of a human platelet GPIIb/IIIa solid phase receptor binding experiment system using a biotinylated human fibrinogen as a ligand.
At the outset, human platelet GPIIb/IIIa was purified according to a method established by Pytela, R et al. (Science, 231, 1559-1561 (1986)). Specifically, platelets collected from a normal human being was washed with TBS (0.15 M NaCl/50 mM Tris-HCl buffer (pH 7.5)) containing 0.2% (w/v) glucose. To the resultant pellet was added an equal amount of TBS containing 50 mM octylglucoside and 2 mM PMSF, followed by solubilization of membrane protein at 4°C for 20 min. The extract was centrifuged under conditions of 4°C, 3500 x g, and 20 min. To the supernatant were added 1 mM CaCl2 and 1 mM MgCl2. Thus, a sample for affinity chromatography was prepared. The solubilized protein solution was adsorbed on a GRGDSPK-Sepharose column which had been previously equilibrated with TBS containing 50 mM octylglucoside, 1 mM CaCl2, and 1 mM MgCl2 (buffer A). After washing with buffer A, the adsorbed GPIIb/IIIa was eluted with buffer A containing 2 mM GRGDSPK peptide.
The GRGDSPK-Sepharose was prepared by coupling of GRGDSPK peptide with CNBr-activated Sepharose 4B (manufactured by Pharmacia) according to the instruction manual of the manufacturer.
Next, a human platelet GPIIb/IIIa solid phase receptor binding test was carried out according to a method established by Mori et al. (Nippon Kessen Shiketsu Gakkaishi, 2(4), 323-329 (1991)).
Purified human platelet GPIIb/IIIa was adjusted to 2 µg/ml, and an 50 µl aliquot was adsorbed on each well of a 96 well microtiter plate at 4°C overnight. After washing with TBS containing 1 mM CaCl2 and 1 mM MgCl2, 100 µl of 1% bovine serum albumin was added to each of the wells, followed by blocking at 4°C overnight. The microtiter plate was then washed with TBS containing 0.01% Tween 20 (TBS-Tween 20), and 50 µl of biotinylated fibrinogen, which had been adjusted to 1 µg/ml, was added to each of the wells. Simultaneously, 50 µl of the test compound, which had been adjusted to appropriate concentrations, was added thereto, followed by a reaction at room temperature for 4 hr. After washing with TBS-Tween 20, 50 µl of peroxidase-labelled avidin, which had been diluted 4000 times with TBS, was added to each of the wells, followed by a reaction for 20 min. After washing with TBS-Tween 20, 50 µl of a solution of 1 mg/ml ABTS (2,2'-azino-bis(3-ethylbenzthiazoline-6-sulfonic acid) dissolved in a peroxidase substrate buffer, which had been diluted 10 times, was added to each of the wells, and a reaction was allowed to proceed for 5 min. Next, 50 µl of a 0.1 M citric acid buffer (pH 4.3) containing 0.05% NaN3 was added to each of the wells to terminate the reaction, and the absorbance was measured at 415 nm.
The binding inhibition was calculated by the following equation.
Binding inhibition (%) = [1 - (absorbance with test compound/absorbance without test compound)] x 100

[3] = human TXA2 synthetase, PGH2 substrate, 25°C, TXB2 determined by enzyme immunoassay, read-out: IC50
[4] = purified human platelet GPIIb/IIIa, biotinylated human fibrinogen as ligand, read-out: IC50

Compound	IC50 (human TXA2 synthetase) [nM]	IC50 ([1]; Platelet) [nM]	IC50 [2] [nM]	IC50 (human TXA2 synthetase; [3]) [nM]	IC50 [2, 4] [nM]	IC50 [1] [nM]	IC50 (human TXA2 synthetase; human TXA2 synthetase, PGH2 substrate, 25°C, TXB2 determined by enzyme immunoassay) [nM]	IC50 ([2]; purified human platelet GPIIb/IIIa, biotinylated human fibrinogen as ligand) [nM]
O=C(O)COc1ccc(C(=O)CN2CCN(C3CCNCC3)CC2=O)cc1Cn1ccnc1 [Example 6, [2-(1-Imidazolylmethyl)-4-[[4-(piperidin-4-yl)-2-oxopiperazin-1-yl]acetyl]phenyl]oxyacetic acid trifluoroacetate]	570	71	12					
O=C(O)COc1ccc(C(CNC(=O)c2cc3c(s2)CCNC3)Oc2cccnc2)cc1 (stereo not drawn) [Example 5, [4-[2-[[(4,5,6,7-Tetrahydrothieno[3,2-c]pyridin-2-yl)carbonyl]amino]-1-(pyridin-3-yl)oxyethyl]phenyl]oxyacetic acid trifluoroacetate]		280		160	10			
O=C(O)COc1ccc(C(=O)CNC(=O)c2cc3c(s2)CCNC3)cc1Cn1ccnc1 [Example 1, [2-(Imidazol-1-yl)methyl-4-[[[4,5,6,7-tetrahydrothieno[3,2-c]pyridin-2-yl]carbonylamino]acetyl]phenyl]oxyacetic acid trifluoroacetate (TFA)]		4400		360	270			
[4-[[4-(Piperidin-4-yl)-2-oxopiperazin-1-yl]acetyl]-2-(3-pyridyloxymethyl)phenyl]oxyacetic acid trifluoroacetate [Example 7]				> 10000	23	93		
O=C(O)COc1ccc(C(CNC(=O)c2cc3c(s2)CCNC3)Oc2cccnc2)cc1OCC(=O)O (stereo not drawn) [Example 3, [[4-[2-[[4,5,6,7-Tetrahydrothieno[3,2-c]pyridin-2-yl]carbonyl]amino-1-[(pyridin-3-yl)oxy]ethyl]-o-phenylene]dioxy]diacetic acid trifluoroacetate]		360		550	1.4			
CN(CC(Oc1cccnc1)c1ccc(OCC(=O)O)c(OCC(=O)O)c1)C(=O)c1cc2c(s1)CCNC2 (stereo not drawn) [Example 4, [[4-[2-[[(4,5,6,7-Tetrahydrothieno[3,2-c]pyridin-2-yl)carbonyl]-N-methylamino]-1-(pyridin-3-yl)oxyethyl]-o-phenylene]dioxy]diacetic acid trifluoroacetate]		140		870	4.8			
O=C(O)COc1ccc(C(=O)CN2C(=O)CN(C3CCNCC3)CC2=O)cc1Cn1ccnc1 [Example 8, [2-(1-Imidazolylmethyl)-4-[[4-(piperidin-4-yl)-2,6-dioxopiperazin-1-yl]acetyl]phenyl]oxyacetic acid trifluoroacetate]		31					690	190
O=C(O)COc1ccc(C(=O)CNC(=O)c2cc3c(s2)CCNC3)cc1COc1cccnc1 [Example 2, [2-(Pyridin-3-yl)oxymethyl-4-[[[4,5,6,7-tetrahydrothieno[3,2-c]pyridin-2-yl]carbonylamino]acetyl]phenyl]oxyacetic acid trifluoroacetate]		9300		> 10000	270			
